This is an account of results in PubChem BioAssay (NCI).

Several values for one entry are separate records, joined by “and”; a condition that tells them apart may be missing. Equal entries are not always repeated.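 Protocol summary: plate cells (96-well), add compound at 5 concentrations, incubate 48 h, interpolate endpoints linearly. At the GI50, growth is halved. TGI: concentration producing complete growth inhibition.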

The test system of the assay is MDA-MB-468 breast. Nature of the assay: inhibition of tumour cell growth, NCI panel, 48 h.
On to `CC(C)n1cc(-c2ccc3c(c2)N(C)CC3)c2c(NS(=O)(=O)c3ccn(C)n3)ccnc21`, for which the GI50 is 41.1 µM and the TGI is above 100 µM.
As to `C=C(C(=O)c1ccccc1)C(NC(C)(C)C)c1ccccc1` (stereo not drawn), the GI50 is 0.566 µM and the TGI was 1.96 µM.
The like results for `O=C1/C(=C/c2ccc(Cl)cc2)CN(Cc2cn(CCCNc3ccnc4cc(Cl)ccc34)nn2)C/C1=C\c1ccc(Cl)cc1` were, in that order, 1.4 µM and 3.5 µM.
Taken in the same sequence, the figures for `Cc1c(O)cccc1C(=O)N[C@@H](CSc1ccccc1)[C@H](O)CN1C[C@H]2CCCC[C@H]2C[C@H]1C(=O)NC(C)(C)C` were 3.89 µM and 15.2 µM.
Taken in the same sequence, the figures for `Nc1c(C(=O)Nc2cccc(Cl)c2)sc2nc3c(cc12)C(O)CCC3` (stereo not drawn) were 0.257 µM and 15.2 µM.
`O=C(O)c1ccc(CSc2nc3ccccc3[nH]2)cc1`: the GI50 is above 100 µM and the TGI was above 100 µM.
As to `COc1cc(C)c(-c2ccc(OC)c(=O)cc2C)c(OC)c1OC`, the TGI is above 100 µM.
With `CC1(C)N=C(N)N=C(N)N1c1ccc(OCC(=O)Nc2ccc(S(=O)(=O)F)cc2Cl)c(Cl)c1`, the GI50 was 1.84 µM and the TGI is above 100 µM.
The like results for `Cn1cc(-c2csc(-c3ccccc3)n2)c2cccnc21` were, in that order, 14.2 µM and 48.4 µM.
The like results for `CS(=O)(=O)c1nccc(-c2c(-c3ccc(F)c(OCCc4ccccc4)c3)nc3sccn23)n1` were, in that order, 2.57 µM and 7.36 µM.
`CCCCCCCCCCCCCCCC(=O)NS(=O)(=O)OC[C@H]1O[C@@H](n2cnc3c(N)ncnc32)[C@H](O)[C@@H]1O`: the GI50 was below 0.0328 µM.
On to `CC(C)c1cnc(-c2cc(Cl)ccc2F)cc1Nc1ccncc1C(=O)NC(CO)CO`, for which the GI50 was 8.35 µM and the TGI was found to be 32.7 µM.
The like results for `COc1ccc(N=Nc2ccc(O)c(=O)cc2)cc1` were, in that order, 2.61 µM and 18.7 µM.
Take `C[C@@]12CC[C@@H](O)C[C@@H]1CC[C@H]1[C@H]2CC[C@@]2(C)[C@H](c3ccc(=O)oc3)CC[C@@]12O`: the GI50 is 0.0278 µM and the TGI came out at 0.0811 µM.
The like results for `Cc1nc2ccc(-n3ncc(C(=O)c4cc5ccccc5[nH]4)c3N)cc2[nH]1` were, in that order, 12.5 µM and 43.2 µM.
Taken in the same sequence, the figures for `c1cc[n+](Cc2c3ccccc3cc3c2ccc2ccccc23)cc1` were 0.426 µM and 2.68 µM.
The like results for `CC1(C)CC[C@]23CC[C@]4(C)[C@H](CC[C@@H]5[C@@]6(C)CCCNC(C)(C)[C@@H]6CC[C@]54C)[C@H]2[C@H]1OC3` were, in that order, 1.61 µM and 3.45 µM.
Turning to `Cc1ccc(NC(=S)NNC(=S)Nc2ccc(C)cc2)cc1`, the GI50 was 2.82 µM and the TGI turned out to be 7.58 µM.
Take `CC[C@]12C=CCN3CC[C@@]4(c5ccc(OC)cc5N(C)[C@H]4[C@@](O)(C(=O)OC)[C@@H]1OC(=O)CCC(=O)O[C@H]1CC[C@H]4[C@@H]5CCC6=CC(=O)CC[C@@H]6[C@H]5CC[C@]14C)[C@@H]32`: the GI50 was 1.42 µM and the TGI turned out to be 5.9 µM.
The like results for `COc1cc(/C=C2\CCC/C(=C\c3cc(CN4CCCC4)c(O)c(OC)c3)C2=O)cc(CN2CCCC2)c1O` were, in that order, 1.7 µM and 4.07 µM.
In the case of `CC[C@]12C=CCN3CC[C@]4(C(=C(C(=O)OC)C1)Nc1cc5c(cc14)[C@@H]1[C@H](O5)[C@@H](O)[C@@]4(CC)CC(C(=O)OC)=C5Nc6ccccc6[C@@]56CCN1[C@@H]46)[C@@H]32`, the GI50 is 0.147 µM and 0.183 µM; the TGI is 1.54 µM and 1.62 µM.
In the case of `Clc1nc(Cl)c2ncn(-c3ccccc3)c2n1`, the GI50 was 2.71 µM and the TGI was 8.39 µM.
As for `CCN1C(=O)/C(=c2\sc3n(c2=O)C2C(NN=3)N(CC)C(=O)N2CC)c2ccccc21` (stereo not drawn), the GI50 was 0.336 µM and the TGI came to 8.33 µM.
Take `COc1ccc(-c2nc3sccn3c2-c2ccnc(NCCNS(=O)(=O)c3ccc(C(F)(F)F)cc3)n2)cc1`: the GI50 was 1.19 µM and the TGI came to 7.62 µM.
The like results for `COc1ccc(-c2cc(=O)c3c(OC)c4ccoc4c(/C=C/C=O)c3o2)cc1` were, in that order, 3.58 µM and 14.4 µM.
Taken in the same sequence, the figures for `NC(=O)c1c[nH]c2ncnc(N)c12` were 18.8 µM and 90.1 µM.
Turning to `CC(C)C[C@H](NC(=O)[C@@H](Cc1ccccc1)n1ccc(Nc2ccccc2)cc1=O)B(O)O`, the GI50 is 0.236 µM and the TGI was 1.29 µM.
The like results for `NS(=O)(=O)c1ccc(N=Nc2c(O)[nH]c3ccc(C(=O)NCCCn4ccnc4)cc23)cc1` were, in that order, above 25 µM and above 25 µM.
The like results for `O=C(/C=C(/C=C/c1cccc2[nH]ccc12)OB(F)F)/C=C/c1cccc2[nH]ccc12` were, in that order, 0.473 µM and 3.12 µM.
Taken in the same sequence, the figures for `C#C[C@]1(O)CC[C@H]2[C@@H]3CC=C4c5sc(-c6ccc(C)cc6)nc5CC[C@]4(C)[C@H]3CC[C@@]21C` were above 100 µM and above 100 µM.
`Cc1[nH]c(C(=O)Nc2cccc(OC3CCNCC3)c2)c(Cl)c1Cl`: the GI50 was 1.87 µM and the TGI turned out to be 3.68 µM.
For the compound `Nc1nc(N)c2cc(S(=O)(=O)c3ccc4ccccc4c3)ccc2n1`, the GI50 is 2.43 µM and the TGI was above 100 µM.
The like results for `CS(=O)(=O)Nc1cc(-c2ccc3ncc(C#N)c(Nc4ccc(F)c(Cl)c4)c3c2)cnc1Cl` were, in that order, 0.0676 µM and 0.396 µM.
With `CCN1CCN(Cc2ccc(NC(=O)Nc3nc(-c4cc(OC)c(OC)c(OC)c4)cs3)cc2C(F)(F)F)CC1`, the GI50 is 1.43 µM and the TGI is 3.03 µM.
As to `COc1ccc(OC)c(C2=C(c3cn(C)c4ccccc34)C(=O)NC2=O)c1`, the GI50 was above 25 µM and the TGI is above 25 µM.
With `ClC(Cl)c1nc(-c2ccco2)n2nc(-c3ccccc3)cc2n1`, the GI50 was 0.322 µM and the TGI stood at 1.15 µM.
Taken in the same sequence, the figures for `Nc1nc2ccc(CNc3ccc(C(=O)NC(CC(=O)O)C(=O)O)cc3)cc2c(=O)[nH]1` (stereo not drawn) were 9.09 µM and above 100 µM.
Consider `Cc1ccc(C2=NN(c3ccc(S(=O)(=O)NC(=O)NCc4ccccc4)cc3)C(c3ccc(N(C)C)cc3)C2)c(C)c1` (stereo not drawn), for which the GI50 is 2.36 µM and the TGI amounted to 6.11 µM.
Taken in the same sequence, the figures for `CC(C)[C@@]12C[C@@H](OC(=O)COC(=O)c3ccccc3)[C@@](C)(O1)[C@@H]1CC[C@@H](C)[C@H]1[C@@H]2OC(=O)/C=C/c1ccccc1` were above 81.2 µM and above 100 µM.
For the compound `O=S(=O)(NCCNc1nccc(-c2c(-c3ccc(F)cc3)nc3sccn23)n1)c1ccc(O)cc1`, the GI50 is 3.37 µM and the TGI amounted to 48.2 µM.
Take `CN1C(=O)C(N=Nc2ccc([N+](=O)[O-])cc2)SC1=S` (stereo not drawn): the GI50 was 4.33 µM and 9.92 µM; the TGI is 30.6 µM and 56.6 µM.
As to `O=C1c2ccccc2C(=O)c2c1oc1cc(O)c(Cl)cc21`, the GI50 is 1.13 µM and the TGI came to 7.23 µM.
Turning to `COc1cccc2nc(Nc3cccc(NC(=O)c4ccc(N5CCN(C)CC5)c(C(F)(F)F)c4)c3)ccc12`, the GI50 is 1.11 µM and the TGI was found to be 3.65 µM.
As to `CSC1=CC(=O)c2ccccc2C1=O`, the GI50 was 0.26 µM and the TGI stood at 1.09 µM.
Taken in the same sequence, the figures for `CCOc1cc(Cl)c(C(C)NC(=O)c2cccc(OC)c2)cc1OCC` (stereo not drawn) were 3.38 µM and 64.6 µM.
Taken in the same sequence, the figures for `COc1cccc(C(=O)NNc2nc(Cl)nc(N3CCN(C(c4ccccc4)c4ccccc4)CC3)n2)c1` were 2.4 µM and 8.11 µM.
The like results for `Cn1c2c(c3ccccc31)CCN1C[C@@H]3CCCC[C@H]3C[C@@H]21` were, in that order, 1.77 µM and 8.73 µM.
On to `COc1ccc2[nH]c(C(=O)OCc3ccc4c(Br)cc(Br)c(O)c4n3)cc2c1`, for which the GI50 was 0.822 µM and the TGI is 2.46 µM.
The like results for `COc1ccccc1CNCCCN1C(=O)c2ccc3c4c(ccc(c24)C1=O)C(=O)N(CCCNCCCCNCCCN)C3=O` were, in that order, 0.131 µM and 0.273 µM.
Taken in the same sequence, the figures for `CC(=O)Oc1ccc(C2OC(c3ccc4ccccc4c3OC(C)=O)=NN2C(C)=O)c(OC(C)=O)c1` (stereo not drawn) were 0.401 µM and 3.22 µM.
With `COc1cc2c(Nc3ccc(-c4ccc(N)cc4)cc3)ncnc2c(OC)c1OC`, the GI50 is 11.2 µM and the TGI is 49 µM.
`C[n+]1cccc(NC(=O)c2ccc3ccc4ccc(C(=O)Nc5ccc[n+](C)c5)nc4c3n2)c1`: the GI50 was 0.252 µM and the TGI was determined as 1.29 µM.
The like results for `CCN1CCN(Cc2ccc(Nc3ncc(F)c(-c4cc(F)c5nc(C)n(C(C)C)c5c4)n3)nc2)CC1` were, in that order, 6.95 µM and 14 µM.
The like results for `CS(=O)(=O)N1CCC(Nc2ncc(C(=O)c3c(F)cccc3F)c(N)n2)CC1` were, in that order, 12.4 µM and above 25 µM.
The like results for `CCc1ccc(Oc2c(-c3ccc(OCCc4cccc(C(F)(F)F)c4)cc3O)n[nH]c2C(F)(F)F)cc1` were, in that order, 1.87 µM and 7.96 µM.
